In PubChem BioAssay AID1745844 (Carcinogenic Potency Database (CPDB), 2022):
“And” between values parts separate entries of the source, which are not always exact repeats. Identical values can stand only once. The source made the active and inactive calls. The rule behind the calls is not given here.

Tested on: rodent lifetime carcinogenesis bioassay, tumor incidence TD50
Experiment: chronic cancer bioassays in animals – CPDB, compiled studies (AID 1745844)

C=CN1CCCC1=O
TD50 (rat, strain Charles River CD (Sprague-Dawley), females, inhaled, site: any site (literature study), lesion: malignant tumor, dosed 104 weeks, study length 104 weeks): 6.12 mg/kg/day
TD50 (rat, strain Charles River CD (Sprague-Dawley), females, inhaled, site: larynx, lesion: squamous-cell carcinoma, dosed 104 weeks, study length 104 weeks): 120 mg/kg/day
TD50 (rat, strain Charles River CD (Sprague-Dawley), females, inhaled, site: liver, lesion: hepatocellular carcinoma, dosed 104 weeks, study length 104 weeks): 12.3 mg/kg/day
TD50 (rat, strain Charles River CD (Sprague-Dawley), females, inhaled, site: nasal cavity, olfactory epithelium, lesion: adenocarcinoma, dosed 104 weeks, study length 104 weeks): 120 mg/kg/day
TD50 (rat, strain Charles River CD (Sprague-Dawley), females, inhaled, site: nasal cavity, respiratory epithelium, lesion: adenoma, dosed 52 weeks, study length 52 weeks): 19.8 mg/kg/day
TD50 (rat, strain Charles River CD (Sprague-Dawley), females, inhaled, site: nasal cavity, respiratory epithelium, lesion: adenoma, dosed 104 weeks, study length 104 weeks): 20.4 mg/kg/day
TD50 (rat, strain Charles River CD (Sprague-Dawley), males, inhaled, site: any site (literature study), lesion: malignant tumor, dosed 104 weeks, study length 104 weeks): 5 mg/kg/day
TD50 (rat, strain Charles River CD (Sprague-Dawley), males, inhaled, site: any site (literature study), lesion: several types, types named in the paper, dosed 104 weeks, study length 104 weeks): 1.99 mg/kg/day
TD50 (rat, strain Charles River CD (Sprague-Dawley), males, inhaled, site: larynx, lesion: squamous-cell carcinoma, dosed 104 weeks, study length 104 weeks): 84 mg/kg/day
TD50 (rat, strain Charles River CD (Sprague-Dawley), males, inhaled, site: liver, lesion: hepatocellular carcinoma, dosed 104 weeks, study length 104 weeks): 12 mg/kg/day
TD50 (rat, strain Charles River CD (Sprague-Dawley), males, inhaled, site: nasal cavity, olfactory epithelium, lesion: adenocarcinoma, dosed 104 weeks, study length 104 weeks): 32.9 mg/kg/day
TD50 (rat, strain Charles River CD (Sprague-Dawley), males, inhaled, site: nasal cavity, respiratory epithelium, lesion: adenoma, dosed 52 weeks, study length 52 weeks): 8.56 mg/kg/day
TD50 (rat, strain Charles River CD (Sprague-Dawley), males, inhaled, site: nasal cavity, respiratory epithelium, lesion: adenoma, dosed 104 weeks, study length 104 weeks): 11.7 mg/kg/day

CS(=O)(=O)OCCCNCCCOS(C)(=O)=O
TD50 (mouse, strain B6C3F1, females, i.p., site: any site (literature study), lesion: several types, types named in the paper, dosed 52 weeks, study length 86 weeks): 1.17 mg/kg/day (inactive)
TD50 (mouse, strain B6C3F1, females, i.p., site: lung, lesion: alveolar/bronchiolar adenoma + alveolar/bronchiolar carcinoma, dosed 52 weeks, study length 86 weeks): 6.88 mg/kg/day
TD50 (mouse, strain B6C3F1, males, i.p., site: all sites, lesion: lymphoma, dosed 52 weeks, study length 78 weeks): 37.7 mg/kg/day (inactive)
TD50 (mouse, strain B6C3F1, males, i.p., site: any site (literature study), lesion: several types, types named in the paper, dosed 52 weeks, study length 78 weeks): 2.07 mg/kg/day
TD50 (rat, strain Sprague-Dawley, females, i.p., site: any site (literature study), lesion: several types, types named in the paper, dosed 36 weeks, study length 80 weeks): 0.616 mg/kg/day
TD50 (rat, strain Sprague-Dawley, females, i.p., site: liver, lesion: hepatocellular adenoma + hepatocellular carcinoma + neoplastic nodule, dosed 36 weeks, study length 80 weeks): 5.01 mg/kg/day
TD50 (rat, strain Sprague-Dawley, females, i.p., site: peritoneum, lesion: fibrosarcoma + sarcoma, NOS, dosed 36 weeks, study length 80 weeks): 2.74 mg/kg/day
TD50 (rat, strain Sprague-Dawley, males, i.p., site: any site (literature study), lesion: several types, types named in the paper, dosed 36 weeks, study length 80 weeks): 1.3 mg/kg/day
TD50 (rat, strain Sprague-Dawley, males, i.p., site: peritoneum, lesion: fibrosarcoma + fibroma + sarcoma, NOS, dosed 36 weeks, study length 80 weeks): 0.915 mg/kg/day

Nc1cc([N+](=O)[O-])ccc1C(=O)O
carcinogen call (mouse, strain B6C3F1, females, in feed, site: any site (literature study), lesion: several types, types named in the paper, dosed 78 weeks, study length 93 weeks): negative (inactive)
TD50 (mouse, strain B6C3F1, females, in feed, site: lung, lesion: alveolar/bronchiolar adenoma + alveolar/bronchiolar carcinoma, dosed 78 weeks, study length 93 weeks): 2560 mg/kg/day
TD50 (mouse, strain B6C3F1, males, in feed, site: all sites, lesion: hemangioma + hemangiosarcoma, dosed 78 weeks, study length 93 weeks): 12600 mg/kg/day (inactive)
TD50 (mouse, strain B6C3F1, males, in feed, site: any site (literature study), lesion: several types, types named in the paper, dosed 78 weeks, study length 93 weeks): 1660 mg/kg/day
carcinogen call (rat, strain Fischer 344, females, in feed, site: any site (literature study), lesion: several types, types named in the paper, dosed 78 weeks, study length 105 weeks): negative (inactive)
TD50 (rat, strain Fischer 344, females, in feed, site: liver, lesion: hepatocellular adenoma + hepatocellular carcinoma + neoplastic nodule, dosed 78 weeks, study length 105 weeks): 11800 mg/kg/day
carcinogen call (rat, strain Fischer 344, males, in feed, site: any site (literature study), lesion: several types, types named in the paper, dosed 78 weeks, study length 105 weeks): negative (inactive)
TD50 (rat, strain Fischer 344, males, in feed, site: liver, lesion: hepatocellular adenoma + hepatocellular carcinoma + neoplastic nodule, dosed 78 weeks, study length 105 weeks): 3710 mg/kg/day

NNC(=O)c1ccncc1
TD50 (hamster, strain Syrian Golden, females, in drinking water, site: forestomach, lesion: papilloma, dosed 121 weeks, study length 121 weeks): 575 mg/kg/day (inactive)
carcinogen call (hamster, strain Syrian Golden, males, in drinking water, site: liver, lesion: hemangioma, dosed 130 weeks, study length 130 weeks): negative (inactive)
TD50 (mouse, strain A, males, by gavage, site: liver, lesion: carcinoma, dosed 79 weeks, study length 79 weeks): 159 mg/kg/day
TD50 (mouse, strain A, males, by gavage, site: lung, lesion: carcinoma, dosed 79 weeks, study length 79 weeks): 206 mg/kg/day
TD50 (mouse, strain A, males, by gavage, site: several sites, sites named in the paper, lesion: carcinoma, dosed 79 weeks, study length 79 weeks): 219 mg/kg/day
TD50 (mouse, strain AKR, females, in drinking water, site: lung, lesion: one or several types, types not named, dosed 70 weeks, study length 70 weeks): 89.6 mg/kg/day (inactive)
carcinogen call (mouse, strain AKR, males, in drinking water, site: liver, lesion: hemangioma, dosed 59 weeks, study length 59 weeks): negative (inactive)
TD50 (mouse, strain AKR, males, in drinking water, site: lung, lesion: one or several types, types not named, dosed 59 weeks, study length 59 weeks): 202 mg/kg/day (inactive)
TD50 (mouse, strain C3H (MTV+), females, in drinking water, site: lung, lesion: adenoma, dosed 72 weeks, study length 72 weeks): 755 mg/kg/day
TD50 (mouse, strain C3H (MTV+), males, in drinking water, site: lung, lesion: adenoma, dosed 72 weeks, study length 72 weeks): 219 mg/kg/day
TD50 (mouse, strain CBA/Cb/Se, females, by gavage, site: liver, lesion: hepatoma, dosed 36 weeks, study length 84 weeks): 187 mg/kg/day (inactive)
TD50 (mouse, strain CBA/Cb/Se, females, by gavage, site: lung, lesion: several types, types named in the paper, dosed 36 weeks, study length 84 weeks): 11.2 mg/kg/day
TD50 (mouse, strain CBA/Cb/Se, males, by gavage, site: liver, lesion: hepatoma, dosed 36 weeks, study length 74 weeks): 165 mg/kg/day (inactive)
TD50 (mouse, strain CBA/Cb/Se, males, by gavage, site: lung, lesion: several types, types named in the paper, dosed 36 weeks, study length 74 weeks): 12.2 mg/kg/day
TD50 (mouse, strain Not specified, both sexes, by gavage, site: any site (literature study), lesion: several types, types named in the paper, dosed 52 weeks, study length 52 weeks): 14.1 mg/kg/day
TD50 (mouse, strain Not specified, both sexes, by gavage, site: lung, lesion: adenoma, dosed 52 weeks, study length 52 weeks): 19.3 mg/kg/day
TD50 (mouse, strain Not specified, both sexes, by gavage, site: mammary gland, lesion: adenocarcinoma, dosed 52 weeks, study length 52 weeks): 80.9 mg/kg/day
carcinogen call (mouse, strain Swiss albino, females, in drinking water, site: liver, lesion: hemangioma, dosed 80 weeks, study length 80 weeks): negative (inactive)
carcinogen call (mouse, strain Swiss albino, females, in drinking water, site: liver, lesion: hemangioma, dosed 101 weeks, study length 106 weeks): negative (inactive)
TD50 (mouse, strain Swiss albino, females, in drinking water, site: lung, lesion: adenocarcinoma, dosed 80 weeks, study length 80 weeks): 435 mg/kg/day
TD50 (mouse, strain Swiss albino, females, in drinking water, site: lung, lesion: adenoma, dosed 80 weeks, study length 80 weeks): 189 mg/kg/day
TD50 (mouse, strain Swiss albino, females, in drinking water, site: lung, lesion: adenoma, dosed 101 weeks, study length 106 weeks): 386 mg/kg/day
TD50 (mouse, strain Swiss albino, females, in drinking water, site: lung, lesion: several types, types named in the paper, dosed 80 weeks, study length 80 weeks): 153 mg/kg/day
carcinogen call (mouse, strain Swiss albino, males, in drinking water, site: liver, lesion: hemangioma, dosed 80 weeks, study length 80 weeks): negative (inactive)
TD50 (mouse, strain Swiss albino, males, in drinking water, site: lung, lesion: adenoma, dosed 80 weeks, study length 80 weeks): 124 mg/kg/day
TD50 (mouse, strain Swiss albino, males, in drinking water, site: lung, lesion: adenoma, dosed 86 weeks, study length 87 weeks): 104 mg/kg/day
TD50 (mouse, strain Swiss, both sexes, by gavage, site: lung, lesion: adenocarcinoma, dosed 95 weeks, study length 95 weeks): 28.8 mg/kg/day
TD50 (mouse, strain Swiss, both sexes, by gavage, site: lung, lesion: one or several types, types not named, dosed 97 weeks, study length 97 weeks): 24.5 mg/kg/day
TD50 (mouse, strain Swiss, females, by gavage, site: liver, lesion: carcinoma, dosed 81 weeks, study length 83 weeks): 88.6 mg/kg/day
TD50 (mouse, strain Swiss, females, by gavage, site: lung, lesion: carcinoma, dosed 81 weeks, study length 83 weeks): 88.6 mg/kg/day
TD50 (mouse, strain Swiss, females, by gavage, site: lung, lesion: carcinoma, dosed 83 weeks, study length 83 weeks): 53.1 mg/kg/day
TD50 (mouse, strain Swiss, females, by gavage, site: several sites, sites named in the paper, lesion: carcinoma, dosed 81 weeks, study length 83 weeks): 39.9 mg/kg/day
TD50 (mouse, strain Swiss, females, by gavage, site: several sites, sites named in the paper, lesion: carcinoma, dosed 83 weeks, study length 83 weeks): 53.1 mg/kg/day
TD50 (mouse, strain Swiss, males, by gavage, site: liver, lesion: carcinoma, dosed 79 weeks, study length 79 weeks): 88.8 mg/kg/day and 71.3 mg/kg/day
TD50 (mouse, strain Swiss, males, by gavage, site: liver, lesion: carcinoma, dosed 85 weeks, study length 85 weeks): 211 mg/kg/day
TD50 (mouse, strain Swiss, males, by gavage, site: lung, lesion: carcinoma, dosed 79 weeks, study length 79 weeks): 41.1 mg/kg/day and 39.2 mg/kg/day
TD50 (mouse, strain Swiss, males, by gavage, site: lung, lesion: carcinoma, dosed 85 weeks, study length 85 weeks): 28.9 mg/kg/day
TD50 (mouse, strain Swiss, males, by gavage, site: several sites, sites named in the paper, lesion: carcinoma, dosed 79 weeks, study length 79 weeks): 25.7 mg/kg/day and 21.2 mg/kg/day
TD50 (mouse, strain Swiss, males, by gavage, site: several sites, sites named in the paper, lesion: carcinoma, dosed 85 weeks, study length 85 weeks): 24 mg/kg/day
TD50 (rat, strain Cb/Sc, females, in drinking water, site: mammary gland, lesion: fibroadenoma, dosed 48 weeks, study length 64 weeks): 120 mg/kg/day
TD50 (rat, strain Cb/Sc, males, in drinking water, site: liver, lesion: one or several types, types not named, dosed 48 weeks, study length 84 weeks): 199 mg/kg/day
TD50 (rat, strain Cb/Sc, males, in drinking water, site: lung, lesion: several types, types named in the paper, dosed 48 weeks, study length 84 weeks): 1070 mg/kg/day

CC(=O)Nc1ccc(S(=O)(=O)O)c2cc(S(=O)(=O)O)c(N=Nc3ccc(N=Nc4ccc(S(=O)(=O)O)cc4)c4ccc(S(=O)(=O)O)cc34)c(O)c12
carcinogen call (mouse, strain CFW, females, in feed, site: liver, lesion: one or several types, types not named, dosed 80 weeks, study length 80 weeks): negative (inactive)
carcinogen call (mouse, strain CFW, females, in feed, site: lung, lesion: adenoma, dosed 80 weeks, study length 80 weeks): negative (inactive)
carcinogen call (mouse, strain CFW, males, in feed, site: liver, lesion: one or several types, types not named, dosed 80 weeks, study length 80 weeks): negative (inactive)
TD50 (mouse, strain CFW, males, in feed, site: lung, lesion: adenoma, dosed 80 weeks, study length 80 weeks): 3660 mg/kg/day (inactive)
carcinogen call (rat, strain CFE, females, in feed, site: liver, lesion: one or several types, types not named, dosed 104 weeks, study length 104 weeks): negative (inactive)
carcinogen call (rat, strain CFE, males, in feed, site: liver, lesion: one or several types, types not named, dosed 104 weeks, study length 104 weeks): negative (inactive)
